In ChEMBL document CHEMBL3885881, “DrugMatrix”:

Species: Rattus norvegicus
Assay: DrugMatrix - Regimen: Daily Repeat
Assay type: toxicity, organism-based, Sprague-Dawley
Parameters: regimen Daily Repeat, gender Male, age 6-8 weeks
Conditions: in vivo, po, 18 mg/kg, route oral GAVAGE, dose level High, […]; for ABSOLUTE BASOPHIL / ABSOLUTE EOSINOPHIL / ABSOLUTE LYMPHOCYTE / ABSOLUTE MONOCYTE / ABSOLUTE SEGMENTED NEUTROPHIL / BASOPHIL / EOSINOPHIL / ERYTHROCYTE COUNT / HEMATOCRIT / HEMOGLOBIN / LEUKOCYTE COUNT / LYMPHOCYTE / MEAN CORPUSCULAR HEMOGLOBIN / MEAN CORPUSCULAR HEMOGLOBIN CONCENTRATION / MEAN CORPUSCULAR VOLUME / MONOCYTE / NEUTROPHIL / NUCLEATED RED BLOOD CELLS / PLATELET COUNT: tissue Blood; for ALANINE AMINOTRANSFERASE / ALBUMIN / ALKALINE PHOSPHATASE / ASPARTATE AMINOTRANSFERASE / BLOOD UREA NITROGEN / CARBON DIOXIDE / CHLORIDE / CHOLESTEROL / CREATINE PHOSPHOKINASE / CREATININE / GLUCOSE / LACTATE DEHYDROGENASE / LIPASE / PHOSPHORUS / POTASSIUM / SODIUM / TOTAL BILIRUBIN / TOTAL PROTEIN / URIC ACID: tissue Plasma

**Q.** `CC(C(=O)O)c1ccc(CC2CCCC2=O)cc1` (stereo unspecified) [LOXOPROFEN] was tested. Which “ABSOLUTE BASOPHIL” value (72 h, time 3 day) did it give?
**A.** The value was 0 CELLS/uL.

**Q.** And the “ABSOLUTE EOSINOPHIL” value (72 h, time 3 day)?
**A.** The value was 0 CELLS/uL.

**Q.** And the “ABSOLUTE LYMPHOCYTE” value (72 h, time 3 day)?
**A.** The value was 12885.33 CELLS/uL.

**Q.** And the “ABSOLUTE MONOCYTE” value (72 h, time 3 day)?
**A.** Its value is 42.67 CELLS/uL.

**Q.** And the “ABSOLUTE SEGMENTED NEUTROPHIL” value (72 h, time 3 day)?
**A.** The value was 1338.67 CELLS/uL.

**Q.** And the BASOPHIL (72 h, time 3 day)?
**A.** Its BASOPHIL is 0%.

**Q.** What about the EOSINOPHIL (72 h, time 3 day) of the same compound?
**A.** Its EOSINOPHIL is 0%.

**Q.** What about the “ERYTHROCYTE COUNT” value (72 h, time 3 day) of the same compound?
**A.** The value was 5.2 x10E6/uL.

**Q.** And the HEMATOCRIT (72 h, time 3 day)?
**A.** The HEMATOCRIT was 32.2%.

**Q.** And the HEMOGLOBIN (72 h, time 3 day)?
**A.** Its HEMOGLOBIN is 13.03 G/DL.

**Q.** What about the “LEUKOCYTE COUNT” value (72 h, time 3 day) of the same compound?
**A.** Its value is 14.27 x10E3/uL.

**Q.** And the LYMPHOCYTE (72 h, time 3 day)?
**A.** Its LYMPHOCYTE is 90.67%.

**Q.** And the “MEAN CORPUSCULAR HEMOGLOBIN” value (72 h, time 3 day)?
**A.** Its value is 25.1 pg.

**Q.** And the “MEAN CORPUSCULAR HEMOGLOBIN CONCENTRATION” value (72 h, time 3 day)?
**A.** Its value is 40.53 G/DL.

**Q.** What about the “MEAN CORPUSCULAR VOLUME” value (72 h, time 3 day) of the same compound?
**A.** Its value is 61.93 fL.

**Q.** And the MONOCYTE (72 h, time 3 day)?
**A.** The MONOCYTE was 0.33%.

**Q.** And the NEUTROPHIL (72 h, time 3 day)?
**A.** The NEUTROPHIL was 9%.

**Q.** What about the “NUCLEATED RED BLOOD CELLS” value (72 h, time 3 day) of the same compound?
**A.** The value was 0 /100WBC.

**Q.** What about the “PLATELET COUNT” value (72 h, time 3 day) of the same compound?
**A.** Its value is 1130.33 x10E3/uL.

**Q.** What about the “ALANINE AMINOTRANSFERASE” value (72 h, time 3 day) of the same compound?
**A.** Its value is 76.67 u/L.

**Q.** What about the ALBUMIN (72 h, time 3 day) of the same compound?
**A.** The ALBUMIN was 4.03 G/DL.

**Q.** And the “ALKALINE PHOSPHATASE” value (72 h, time 3 day)?
**A.** Its value is 346.33 u/L.

**Q.** What about the “ASPARTATE AMINOTRANSFERASE” value (72 h, time 3 day) of the same compound?
**A.** The value was 93 u/L.

**Q.** And the “BLOOD UREA NITROGEN” value (72 h, time 3 day)?
**A.** The value was 15.67 mg/dL.

**Q.** And the “CARBON DIOXIDE” value (72 h, time 3 day)?
**A.** Its value is 30.33 mmol/L.

**Q.** What about the CHLORIDE (72 h, time 3 day) of the same compound?
**A.** The CHLORIDE was 102.33 MEQ/L.

**Q.** What about the CHOLESTEROL (72 h, time 3 day) of the same compound?
**A.** The CHOLESTEROL was 83 mg/dL.

**Q.** And the “CREATINE PHOSPHOKINASE” value (72 h, time 3 day)?
**A.** Its value is 423.33 u/L.

**Q.** What about the CREATININE (72 h, time 3 day) of the same compound?
**A.** The CREATININE was 0.36 mg/dL.

**Q.** What about the GLUCOSE (72 h, time 3 day) of the same compound?
**A.** Its GLUCOSE is 148.67 mg/dL.

**Q.** What about the “LACTATE DEHYDROGENASE” value (72 h, time 3 day) of the same compound?
**A.** The value was 236.33 u/L.

**Q.** And the LIPASE (72 h, time 3 day)?
**A.** Its LIPASE is 13 u/L.

**Q.** What about the PHOSPHORUS (72 h, time 3 day) of the same compound?
**A.** Its PHOSPHORUS is 11.07 mg/dL.

**Q.** And the POTASSIUM (72 h, time 3 day)?
**A.** The POTASSIUM was 6.41 MEQ/L.

**Q.** What about the SODIUM (72 h, time 3 day) of the same compound?
**A.** Its SODIUM is 143.6 MEQ/L.

**Q.** And the “TOTAL BILIRUBIN” value (72 h, time 3 day)?
**A.** Its value is 0.27 mg/dL.

**Q.** What about the “TOTAL PROTEIN” value (72 h, time 3 day) of the same compound?
**A.** The value was 5.63 G/DL.

**Q.** What about the “URIC ACID” value (72 h, time 3 day) of the same compound?
**A.** The value was 1.1 mg/dL.

**Q.** What about the “ABSOLUTE BASOPHIL” value (120 h, time 5 day) of the same compound?
**A.** The value was 0 CELLS/uL.

**Q.** What about the “ABSOLUTE EOSINOPHIL” value (120 h, time 5 day) of the same compound?
**A.** The value was 118 CELLS/uL.

**Q.** And the “ABSOLUTE LYMPHOCYTE” value (120 h, time 5 day)?
**A.** Its value is 14441.67 CELLS/uL.

**Q.** And the “ABSOLUTE MONOCYTE” value (120 h, time 5 day)?
**A.** The value was 168.67 CELLS/uL.

**Q.** What about the “ABSOLUTE SEGMENTED NEUTROPHIL” value (120 h, time 5 day) of the same compound?
**A.** The value was 1438.33 CELLS/uL.

**Q.** And the BASOPHIL (120 h, time 5 day)?
**A.** Its BASOPHIL is 0%.

**Q.** What about the EOSINOPHIL (120 h, time 5 day) of the same compound?
**A.** Its EOSINOPHIL is 1%.

**Q.** What about the “ERYTHROCYTE COUNT” value (120 h, time 5 day) of the same compound?
**A.** Its value is 5.58 x10E6/uL.

**Q.** And the HEMATOCRIT (120 h, time 5 day)?
**A.** Its HEMATOCRIT is 34.33%.

**Q.** What about the HEMOGLOBIN (120 h, time 5 day) of the same compound?
**A.** The HEMOGLOBIN was 13.8 G/DL.

**Q.** And the “LEUKOCYTE COUNT” value (120 h, time 5 day)?
**A.** Its value is 16.17 x10E3/uL.

**Q.** And the LYMPHOCYTE (120 h, time 5 day)?
**A.** Its LYMPHOCYTE is 90%.

**Q.** And the “MEAN CORPUSCULAR HEMOGLOBIN” value (120 h, time 5 day)?
**A.** The value was 24.77 pg.

**Q.** What about the “MEAN CORPUSCULAR HEMOGLOBIN CONCENTRATION” value (120 h, time 5 day) of the same compound?
**A.** Its value is 40.2 G/DL.

**Q.** What about the “MEAN CORPUSCULAR VOLUME” value (120 h, time 5 day) of the same compound?
**A.** The value was 61.53 fL.

**Q.** What about the MONOCYTE (120 h, time 5 day) of the same compound?
**A.** The MONOCYTE was 1%.

**Q.** And the NEUTROPHIL (120 h, time 5 day)?
**A.** Its NEUTROPHIL is 8%.

**Q.** And the “NUCLEATED RED BLOOD CELLS” value (120 h, time 5 day)?
**A.** The value was 0 /100WBC.

**Q.** And the “PLATELET COUNT” value (120 h, time 5 day)?
**A.** Its value is 1237 x10E3/uL.

**Q.** What about the “ALANINE AMINOTRANSFERASE” value (120 h, time 5 day) of the same compound?
**A.** The value was 60.67 u/L.

**Q.** What about the ALBUMIN (120 h, time 5 day) of the same compound?
**A.** The ALBUMIN was 4.13 G/DL.

**Q.** What about the “ALKALINE PHOSPHATASE” value (120 h, time 5 day) of the same compound?
**A.** Its value is 356.33 u/L.

**Q.** What about the “ASPARTATE AMINOTRANSFERASE” value (120 h, time 5 day) of the same compound?
**A.** The value was 101 u/L.

**Q.** What about the “BLOOD UREA NITROGEN” value (120 h, time 5 day) of the same compound?
**A.** The value was 17 mg/dL.

**Q.** And the “CARBON DIOXIDE” value (120 h, time 5 day)?
**A.** Its value is 27.67 mmol/L.

**Q.** What about the CHLORIDE (120 h, time 5 day) of the same compound?
**A.** The CHLORIDE was 103.33 MEQ/L.

**Q.** And the CHOLESTEROL (120 h, time 5 day)?
**A.** The CHOLESTEROL was 67.67 mg/dL.

**Q.** And the “CREATINE PHOSPHOKINASE” value (120 h, time 5 day)?
**A.** Its value is 434 u/L.

**Q.** What about the CREATININE (120 h, time 5 day) of the same compound?
**A.** The CREATININE was 0.18 mg/dL.

**Q.** And the GLUCOSE (120 h, time 5 day)?
**A.** The GLUCOSE was 141 mg/dL.

**Q.** What about the “LACTATE DEHYDROGENASE” value (120 h, time 5 day) of the same compound?
**A.** Its value is 660 u/L.

**Q.** And the LIPASE (120 h, time 5 day)?
**A.** The LIPASE was 10.67 u/L.

**Q.** What about the PHOSPHORUS (120 h, time 5 day) of the same compound?
**A.** The PHOSPHORUS was 11.17 mg/dL.

**Q.** And the POTASSIUM (120 h, time 5 day)?
**A.** Its POTASSIUM is 5.74 MEQ/L.

**Q.** And the SODIUM (120 h, time 5 day)?
**A.** The SODIUM was 144.53 MEQ/L.

**Q.** What about the “TOTAL BILIRUBIN” value (120 h, time 5 day) of the same compound?
**A.** Its value is 0.23 mg/dL.

**Q.** And the “TOTAL PROTEIN” value (120 h, time 5 day)?
**A.** The value was 5.77 G/DL.

**Q.** And the “URIC ACID” value (120 h, time 5 day)?
**A.** Its value is 1.33 mg/dL.
